From patent publication US7338964B2, “2-substituted-1-deaza purine derivatives with adenosine receptor modulating activity” (Solvay Pharmaceuticals, B.V., priority 2004, dated 2008)

Tests used:
[1] = target: T1, human adenosine-A1 receptors (Homo sapiens, UniProt P30542); assay: In vitro affinity for human adenosine-A1 receptors, [3H]DPCPX radioligand binding; conditions: human recombinant receptors expressed in CHO cells, read-out: Adenosine receptor affinity A1 pKi (converted)
T1 construct: expressed in transfected cells; host or cells: CHO cells
T1 sequence (P30542 1-326): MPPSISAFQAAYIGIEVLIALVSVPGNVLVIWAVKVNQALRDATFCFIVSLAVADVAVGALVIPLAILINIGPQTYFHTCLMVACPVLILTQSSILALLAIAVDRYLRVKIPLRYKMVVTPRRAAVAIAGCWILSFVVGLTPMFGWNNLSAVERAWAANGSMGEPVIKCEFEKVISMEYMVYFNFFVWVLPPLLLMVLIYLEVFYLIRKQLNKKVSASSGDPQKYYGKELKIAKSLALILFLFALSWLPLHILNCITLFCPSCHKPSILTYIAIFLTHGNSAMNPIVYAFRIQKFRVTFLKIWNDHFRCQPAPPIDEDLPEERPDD
Description: Affinity of the compounds for human adenosine-A1 receptors was determined using the receptor binding assay described by A. Townsend-Nicholson and P. R. Schofield (Biol. Chem., 269, 2373, 1994), using human recombinant receptors expressed in CHO cells, and [^3H]DPCPX as radioligand.

[2] = target: T2, human adenosine-A2A receptors (Homo sapiens, UniProt P29274); assay: In vitro affinity for human adenosine-A2A receptors, [3H]CGS 21680 radioligand binding; conditions: human recombinant receptors expressed in HEK-293 cells, read-out: Adenosine receptor affinity A2A pKi (converted)
T2 construct: expressed in transfected cells; host or cells: HEK-293 cells
T2 sequence (P29274 whole entry): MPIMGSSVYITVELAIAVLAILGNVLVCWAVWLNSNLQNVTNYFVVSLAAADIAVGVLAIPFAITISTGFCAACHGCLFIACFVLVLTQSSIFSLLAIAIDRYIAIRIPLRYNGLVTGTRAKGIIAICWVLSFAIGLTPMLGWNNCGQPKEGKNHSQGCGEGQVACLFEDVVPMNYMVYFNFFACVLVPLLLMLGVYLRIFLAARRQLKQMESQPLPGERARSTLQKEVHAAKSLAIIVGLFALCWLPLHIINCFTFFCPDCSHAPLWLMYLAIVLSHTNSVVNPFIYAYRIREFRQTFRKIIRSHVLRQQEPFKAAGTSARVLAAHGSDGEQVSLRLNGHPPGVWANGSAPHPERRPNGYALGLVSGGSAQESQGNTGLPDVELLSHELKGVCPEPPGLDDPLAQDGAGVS
Description: Affinity of the compounds for human adenosine-A2A receptors was determined using the receptor binding assay described by D. R. Luthin et al. (Mol. Pharmacol., 47, 307, 1995), using human recombinant receptors expressed in HEK-293 cells, and [^3H]CGS 21680 as radioligand.

[3] = target: T3, human adenosine-A3 receptor (Homo sapiens, UniProt P0DMS8); assay: In vitro affinity for human adenosine-A3 receptors, [125I]-AB-MECA radioligand binding; conditions: human recombinant (HEK 293) cell membranes, read-out: Adenosine receptor affinity A3 pKi (converted)
T3 construct: expressed in transfected cells; membrane preparations
T3 sequence (P0DMS8 1-318): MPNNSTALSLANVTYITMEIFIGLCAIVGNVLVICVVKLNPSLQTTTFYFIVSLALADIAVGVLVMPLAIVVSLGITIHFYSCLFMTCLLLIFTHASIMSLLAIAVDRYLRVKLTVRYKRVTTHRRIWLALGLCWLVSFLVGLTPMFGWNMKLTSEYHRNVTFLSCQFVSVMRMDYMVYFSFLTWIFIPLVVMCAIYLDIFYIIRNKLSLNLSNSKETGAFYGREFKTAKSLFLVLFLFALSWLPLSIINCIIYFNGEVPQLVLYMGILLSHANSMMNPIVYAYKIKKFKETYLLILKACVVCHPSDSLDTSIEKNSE
Description: Affinity of the compounds for human adenosine-A3 receptors was determined using the receptor binding assay described by C. A. Salvatore et al.: “Molecular cloning and characterization of the human A3 adenosine receptor”, Proc. Natl. Acad. Sci. USA, 90, 10365-10369, 1993. Briefly, membrane preparations were obtained from human recombinant (HEK 293) cells in which the human adenosine-A3 receptor was stably expressed. Membranes were incubated at 22° C. for 90 minutes with [^125I]-AB-MECA in the absence or presence of test compounds in a concentration range from 10 μM down to 0.1 nM, diluted in a suitable buffer. Separation of bound radioactivity from free was done by filtration through Packard GF/B glass fiber filters with several washings with ice-cold buffer using a Packard cell harvester. Bound radioactivity was measured with a scintillation counter (Topcount, Packard) using a liquid scintillation cocktail (Microscint 0, Packard). Measured radioactivity was plotted against the concentration of the displacing test compound and displacement curves were calculated by four-parameter logistic regression, resulting in IC50 values, i.e. that concentration of displacing compound by which 50% of the radioligand is displaced. […]

Row | SMILES | Ki [1] | Ki [2] | melting point | Ki [3]
1 | Cn1cnc2c(N)cc(NN=CC3CCCCC3)nc21 [Compound 8, 2-(cyclohexylmethyl-hydrazone)-6-amino-9-methyl-1-deaza-purine] | 3160 nM | 2000 nM | – | –
2 | Cn1cnc2c(N)cc(N3OC4C=CC3CC4)nc21 (stereo not drawn) [Compound 1, 2-(2-oxa-3-azabicyclo[2.2.2]oct-5-en-3-yl)-6-amino-9-methyl-1-deazapurine] | – | 15800 nM | 169.9 °C | –
3 | Cn1cnc2c(N)cc(N[C@H]3CC[C@@H](O)CC3)nc21 [Compound 2, 2-(cis-4-hydroxycyclohexylamino)-6-amino-9-methyl-1-deazapurine] | – | 7940 nM | – | –
4 | Cn1cnc2c(N)cc(NN=CCc3ccccc3)nc21 [Compound 3, 2-(2-phenylethyl-hydrazone)-6-amino-9-methyl-1-deazapurine] | 2510 nM | 3160 nM | 182.1 °C | –

Now from value to compound:

Row | Ki [1] | Ki [2] | melting point | Ki [3] | SMILES
5 | 3980 nM | 1260 nM | 231.7 to 232.8 °C | 2510 nM | Cn1cnc2c(N)cc(NN=Cc3ccccc3)nc21 [Compound 4, 2-benzylhydrazone-6-amino-9-methyl-1-deazapurine]
6 | – | 1000 nM | – | – | COc1ccc(C=NNc2cc(N)c3ncn(C)c3n2)cc1 [Compound 5, 2-(4-methoxy-2-benzylhydrazon)-6-amino-9-methyl-1-deazapurine]
7 | 6310 nM | 2000 nM | – | – | COc1ccc(C=NNc2cc(N)c3ncn(C)c3n2)c(OC)c1 [Compound 6, 2-(2,4-dimethoxy-2-benzylhydrazon)-6-amino-9-methyl-1-deazapurine]
